Reference: BindingDB's records for patent US8592379 (Kyoto University, 2013)

Target: KiSS-1 receptor (Homo sapiens, UniProt Q969F8)
Assay: Binding Assay

KiSS-1 receptor, sequence (Q969F8 whole entry): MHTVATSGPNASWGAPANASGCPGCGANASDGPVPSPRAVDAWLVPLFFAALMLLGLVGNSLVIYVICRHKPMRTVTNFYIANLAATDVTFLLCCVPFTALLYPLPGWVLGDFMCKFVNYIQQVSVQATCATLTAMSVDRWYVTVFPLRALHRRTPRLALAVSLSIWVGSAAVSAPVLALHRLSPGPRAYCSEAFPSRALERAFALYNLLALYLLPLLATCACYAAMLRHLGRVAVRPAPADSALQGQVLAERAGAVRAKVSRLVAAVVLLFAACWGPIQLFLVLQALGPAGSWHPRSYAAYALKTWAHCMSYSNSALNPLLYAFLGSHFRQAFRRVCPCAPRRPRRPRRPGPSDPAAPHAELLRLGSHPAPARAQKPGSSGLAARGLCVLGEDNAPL

IC50: 0.24 nM
Structure (SMILES): CNC[C@@H](O)CC(CC(C)C)C(C)=O (stereo partly specified) [US8592379, 37]
